Source: patent US10501459B2, “Substituted imidazo[1,2-a]pyridines as bromodomain inhibitors” (NEOMED Institute, priority 2015, dated 2019)

Tested on: human C-Myc gene transcription in MV-4-11 cells
Experiment: Transcription of human C-Myc in human leukemic MV-4-11 cells (QuantiGene 2.0)
Type: cell-based
Conditions: inhibition of C-Myc mRNA, 4 hours treatment
Procedure: b) Transcription of Human C-Myc in Human Leukemic MV-4-11 Cells:
The effect of compounds on transcription of human C-Myc gene is monitored in human B-myelomonocytic leukemia cell line MV-4-11 (from American Type Culture Collection (ATCC), Manassas, Va., USA) using QuantiGene 2.0 assay kit (Affymetrix, Santa Clara, Calif., USA).
Typically, 8,000 MV-4-11 cells are plated in sterile 96-well plates (Costar #3598 from Fisher Scientific Canada, Ottawa, Ontario, Canada) in Iscove's medium supplemented with 10% fetal bovine serum, glutamine (2 mM), and penicillin (100 I.U.) and streptomycin (100 μg/mL) (all from Wisent Inc., St. Bruno, Quebec, Canada). Compounds are dissolved in DMSO at 30 mM. A series of 1:3 dilutions are first made in DMSO, and further […] dilutions are made in serum-containing cell culture media. The final concentration of DMSO is […] in cell culture media. After cells are treated with various concentrations of test compound for 4 hours, cells are lysed using Quantigene 2.0 sample processing kit (#QS0100). C-Myc mRNA is detected using a QuantiGene 2.0 assay kit (#QS0009) with gene-specific probe to human C-Myc (#SA-50182) following the manufacturer's recommendations. Luminescene signals are read on Flexstation II microplate reader (Molecular Devices, Sunnyvale, Calif., USA). Percentage of inhibition of C-Myc transcription is analyzed using EXCEL (2010 version).

Row | IC50 (Homo sapiens, MV4-11, 4 h) [nM] | IC50 [nM] | Structure (SMILES)
1 | 851 | – | Cc1cc(-c2ccc3ncc(S(=O)(=O)C4CCCC4)n3c2)cn(C)c1=O [Compound 49, 5-(3-(cyclopentylsulfonyl)imidazo[1,2-a]pyridin-6-yl)-1,3-dimethylpyridin-2(1H)-one]
2 | 865 | – | Cc1cc(-c2ccc3ncc(S(=O)(=O)NC4CCOCC4)n3c2)cn(C)c1=O [Compound 42, 6-(1,5-dimethyl-6-oxo-1,6-dihydropyridin-3-yl)-N-(tetrahydro-2H-pyran-4-yl)imidazo[1,2-a]pyridine-3-sulfonamide]
3 | 508 | – | Cc1cc(-c2ccc3ncc(S(=O)(=O)N4CCCCC4)n3c2)cn(C)c1=O [Compound 14, 1,3-dimethyl-5-(3-(piperidin-1-ylsulfonyl)imidazo[1,2-a]pyridin-6-yl)pyridin-2(1H)-one]
4 | 16.5 | – | Cc1cc(-c2ccc3ncc(NCC4CCCC4)n3c2)cn(C)c1=O [Compound 23, 5-[3-(cyclopentylmethylamino)imidazo[1,2-a]pyridin-6-yl]-1,3-dimethyl-pyridin-2-one]
5 | 731 | – | Cc1cc(-c2ccc3ncc(S(=O)(=O)N(C)C4CCOC4)n3c2)cn(C)c1=O (single isomer, unassigned) [Compound 47, 6-(1,5-dimethyl-6-oxo-1,6-dihydropyridin-3-yl)-N-methyl-N-(tetrahydrofuran-3-yl)imidazo[1,2-a]pyridine-3-sulfonamide]
6 | 2730 | – | Cc1cc(-c2ccc3ncc(C(=O)N4CCOCC4)n3c2)cn(C)c1=O [Compound 11, 1,3-dimethyl-5-(3-(morpholine-4-carbonyl)imidazo[1,2-a]pyridin-6-yl) pyridin-2(1H)-one]
7 | 9.8 | – | Cc1cc(-c2ccc3ncc(NC4CCCC4)n3c2)cn(C)c1=O [Compound 22, 5-[3-(cyclopentylamino)imidazo[1,2-a]pyridin-6-yl]-1,3-dimethyl-pyridin-2-one]
8 | 178 | – | Cc1cc(-c2ccc3ncc(S(=O)(=O)N4CCC[C@@H]4C)n3c2)cn(C)c1=O [Compound 46, (S)-1,3-dimethyl-5-(3-((2-methylpyrrolidin-1-yl)sulfonyl)imidazo[1,2-a]pyridin-6-yl)pyridin-2(1H)-one]
9 | 170 | – | Cc1cc(-c2ccc3ncc(S(=O)(=O)N4CCCC4)n3c2)cn(C)c1=O [Compound 19, 1,3-dimethyl-5-(3-(pyrrolidin-1-ylsulfonyl)imidazo[1,2-a]pyridin-6-yl)pyridin-2(1H)-one]
10 | – | 597 | Cc1cc(-c2ccc3ncc(S(=O)(=O)NC4CCCOC4)n3c2)cn(C)c1=O (stereo not shown) [Compound 44, 6-(1,5-dimethyl-6-oxo-1,6-dihydropyridin-3-yl)-N-(tetrahydro-2H-pyran-3-yl)imidazo[1,2-a]pyridine-3-sulfonamide]
11 | – | 898 | Cc1cc(-c2ccc3ncc(S(=O)(=O)NC4CCOC4)n3c2)cn(C)c1=O (single isomer, unassigned) [Compound 53, 6-(1,5-dimethyl-6-oxo-1,6-dihydropyridin-3-yl)-N-(tetrahydrofuran-3-yl) imidazo[1,2-a]pyridine-3-sulfonamide]
12 | 492 | – | Cc1cc(-c2ccc3ncc(CN4CCCCC4=O)n3c2)cn(C)c1=O [Compound 26, 1,3-dimethyl-5-[3-[(2-oxo-1-piperidyl)methyl]imidazo[1,2-a]pyridin-6-yl]pyridin-2-one]
13 | 891 | – | Cc1cc(-c2ccc3ncc(S(=O)(=O)NC4CCOC4)n3c2)cn(C)c1=O (single isomer, unassigned) [Compound 52, 6-(1,5-dimethyl-6-oxo-1,6-dihydropyridin-3-yl)-N-(tetrahydrofuran-3-yl) imidazo[1,2-a]pyridine-3-sulfonamide]
14 | 912 | – | Cc1cc(-c2ccc3ncc(C(=O)NC4CCCCC4)n3c2)cn(C)c1=O [Compound 12, N-cyclohexyl-6-(1,5-dimethyl-6-oxo-1,6-dihydropyridin-3-yl)imidazo[1,2-a] pyridine-3-carboxamide]
15 | – | 253 | Cc1cc(-c2ccc3ncc(S(=O)(=O)NC4CCCOC4)n3c2)cn(C)c1=O (stereo not shown) [Compound 43, 6-(1,5-dimethyl-6-oxo-1,6-dihydropyridin-3-yl)-N-(tetrahydro-2H-pyran-3-yl)imidazo[1,2-a]pyridine-3-sulfonamide]
16 | 816 | – | Cc1cc(-c2ccc3ncc(CN4CCOCC4)n3c2)cn(C)c1=O [Compound 21, 1,3-dimethyl-5-[3-(morpholinomethyl)imidazo[1,2-a]pyridin-6-yl]pyridin-2-one]

Further lines, the compound ahead of its results:

Row | Structure (SMILES) | IC50 (Homo sapiens, MV4-11, 4 h) [nM] | IC50 [nM]
17 | Cc1nc2ccc(-c3cc(C)c(=O)n(C)c3)cn2c1Cc1cccnc1 [Compound 55, 1,3-dimethyl-5-[2-methyl-3-(3-pyridylmethyl)imidazo[1,2-a]pyridin-6-yl] pyridin-2-one] | 84.5 | –
18 | Cc1nc2ccc(-c3cc(C)c(=O)n(C)c3)cn2c1Cc1ccccn1 [Compound 54, 1,3-dimethyl-5-[2-methyl-3-(2-pyridylmethyl)imidazo[1,2-a]pyridin-6-yl] pyridin-2-one] | 151 | –
19 | Cc1cc(-c2ccc3ncc(COC4CCC4)n3c2)cn(C)c1=O [Compound 25, 5-[3-(cyclobutoxymethyl)imidazo[1,2-a]pyridin-6-yl]-1,3-dimethyl-pyridin-2-one] | 174 | –
20 | Cc1cc(-c2ccc3ncc(S(=O)(=O)NC(C)C)n3c2)cn(C)c1=O [Compound 17, 6-(1,5-dimethyl-6-oxo-1,6-dihydropyridin-3-yl)-N-isopropylimidazo [1,2-a] pyridine-3-sulfonamide] | 758 | –
21 | CCNS(=O)(=O)c1cnc2ccc(-c3cc(C)c(=O)n(C)c3)cn12 [Compound 15, 6-(1,5-dimethyl-6-oxo-1,6-dihydropyridin-3-yl)-N-ethylimidazo[1,2-a] pyridine-3-sulfonamide] | 2520 | –
22 | Cc1cc(-c2ccc3ncc(S(=O)(=O)NC4CCCC4)n3c2)cn(C)c1=O [Compound 16, N-cyclopentyl-6-(1,5-dimethyl-6-oxo-1,6-dihydropyridin-3-yl)imidazo[1,2-a]pyridine-3-sulfonamide] | 81.3 | –
23 | COC(c1ccccc1)c1cnc2ccc(-c3cc(C)c(=O)n(C)c3)cn12 (stereo not shown) [Compound 6, 5-[3-[methoxy(phenyl)methyl]imidazo[1,2-a]pyridin-6-yl]-1,3-dimethyl-pyridin-2-one] | – | 91.3
24 | Cc1cc(-c2ccc3ncc(S(=O)(=O)NC4CCCCC4)n3c2)cn(C)c1=O [Compound 18, N-cyclohexyl-6-(1,5-dimethyl-6-oxo-1,6-dihydropyridin-3-yl)imidazo[1,2-a]pyridine-3-sulfonamide] | 93.7 | –
25 | Cc1nc2ccc(-c3cc(C)c(=O)n(C)c3)cn2c1Cc1ccncc1 [Compound 56, 1,3-dimethyl-5-[2-methyl-3-(4-pyridylmethyl)imidazo[1,2-a]pyridin-6-yl] pyridin-2-one] | 153 | –
26 | CO[C@H]1CCN(S(=O)(=O)c2cnc3ccc(-c4cc(C)c(=O)n(C)c4)cn23)C1 [Compound 50, (S)-5-(3-((3-methoxypyrrolidin-1-yl)sulfonyl)imidazo[1,2-a]pyridin-6-yl)-1,3-dimethylpyridin-2(1H)-one] | 2370 | –
27 | CO[C@@H]1CCN(S(=O)(=O)c2cnc3ccc(-c4cc(C)c(=O)n(C)c4)cn23)C1 [Compound 51, (R)-5-(3-((3-methoxypyrrolidin-1-yl)sulfonyl)imidazo [1,2-a]pyridin-6-yl)-1,3-dimethylpyridin-2(1H)-one] | 615 | –
28 | COC(c1ccccc1)c1cnc2ccc(-c3cc(C)c(=O)n(C)c3)cn12 (stereo not shown) [Compound 7, 5-[3-[methoxy(phenyl)methyl]imidazo[1,2-a]pyridin-6-yl]-1,3-dimethyl-pyridin-2-one] | 92.8 | –
